Assays:
Format in all cases: biochemical
hCA-XII [1] = biological target: T1, hCA-XII (Homo sapiens, UniProt O43570); test: Enzyme kinetics; settings: CA-XII; substrate 0-900 µM; inhibitor 0, 0.4, 0.6, 0.8 µM
hCA-II [2] = biological target: T2, hCA-II (Homo sapiens, UniProt P00918); test: Carbonic anhydrase inhibition assay
hCA-XII [3] = biological target: T1, hCA-XII; test: Carbonic anhydrase inhibition assay
hCA-IX [4] = biological target: T3, hCA-IX (Homo sapiens, UniProt Q16790); test: biochemical
hCA-II [5] = biological target: T2, hCA-II; test: Enzyme kinetics; settings: CA-II; substrate 0-900 µM; inhibitor 0, 0.2, 0.4, 0.6 µM
hCA-IX [6] = biological target: T3, hCA-IX; test: Enzyme kinetics; settings: CA-IX; substrate 0-900 µM; inhibitor 0, 0.1, 0.2, 0.3 µM

T1 sequence (O43570 25-354): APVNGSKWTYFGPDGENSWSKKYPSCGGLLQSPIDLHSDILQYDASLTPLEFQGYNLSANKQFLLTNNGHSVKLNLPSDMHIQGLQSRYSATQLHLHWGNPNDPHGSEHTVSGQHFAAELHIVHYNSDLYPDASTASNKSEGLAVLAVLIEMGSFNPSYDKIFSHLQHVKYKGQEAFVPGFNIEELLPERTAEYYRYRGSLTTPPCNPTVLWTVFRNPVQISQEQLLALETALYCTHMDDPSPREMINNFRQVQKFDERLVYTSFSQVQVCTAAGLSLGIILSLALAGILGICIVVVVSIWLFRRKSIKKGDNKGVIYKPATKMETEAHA

IC50 (hCA-II [2]) [nM] | IC50 (hCA-XII [3]) [nM] | IC50 (hCA-IX [4]) [nM] | inhibition of hCA-XII in words (hCA-XII [3]) | SMILES | also measured
1030 ± 100 | 690 ± 150 | 1460 ± 80 |  | COC(=O)c1ccc(Nc2ccc(-c3ccc(S(N)(=O)=O)cc3)cc2)cc1 [Compound 9b, Methyl 4-((4’-sulfamoyl-[1,1’-biphenyl]−4-yl)amino)benzoate] | Mode of Enzyme Inhibition (hCA-XII [1]): Competitive
 | 1050 ± 100 | 2790 ± 20 |  | NS(=O)(=O)c1ccc(-c2ccc(Nc3ccc(Cl)cc3)cc2)cc1 [Compound 9a, 4’-((4-chlorophenyl)amino)-[1,1’-biphenyl]−4-sulfonamide] | 

Continued, compound first:

SMILES | IC50 (hCA-II [2]) [nM] | IC50 (hCA-XII [3]) [nM] | IC50 (hCA-IX [4]) [nM] | inhibition of hCA-XII in words (hCA-XII [3]) | also measured
NS(=O)(=O)c1ccc(-c2ccc(Nc3ccc(F)c(Cl)c3)cc2)cc1 [Compound 9e, 4’-((3-chloro-4-fluorophenyl)amino)-[1,1’-biphenyl]−4-sulfonamide] |  |  | 3430 ± 150 | moderate inhibition | Mode of Enzyme Inhibition (hCA-II [5]): Competitive
NS(=O)(=O)c1ccc(-c2ccc(Nc3ccncc3)cc2)cc1 [Compound 9d, 4’-(pyridin-4-ylamino)-[1,1’-biphenyl]−4-sulfonamide] | 1010 ± 100 |  |  |  | Mode of Enzyme Inhibition (hCA-IX [6]): Uncompetitive; inhibitor potential as compared to standard inhibitor acetazolamide (hCA-IX [4]; hCA-IX): 8 fold
Cc1cc(C)cc(Nc2ccc(-c3ccc(S(N)(=O)=O)cc3)cc2)c1 [Compound 9c, 4’-((3,5-dimethylphenyl)amino)-[1,1’-biphenyl]−4-sulfonamide] |  |  |  | inactive | inhibition of hCA-II in words (hCA-II [2]): inactive; inhibition of hCA-IX in words (hCA-IX [4]): inactive
